Activity calls are given as the source filed them. No cut-off for these calls is given here.
How the values were obtained:
[1] = test system: Plasma; assay: Anti-platelet aggregation in platelet-rich plasma of male Japanese white rabbit assessed as inhibition of ADP-induced platelet aggregation preincubated for 15 mins followed by ADP addition measured up to 10 mins by Born's turbidometric method; format: functional, cell-free; settings: Oryctolagus cuniculus
[2] = test system: Plasma; assay: Anti-platelet aggregation in platelet-rich plasma of male male Sprague-Dawley rat assessed as inhibition of ADP-induced platelet aggregation preincubated for 15 mins followed by ADP addition measured up to 10 mins by Born's turbidometric method; format: functional, cell-free
[3] = Antagonist activity at P2Y1 receptor in platelet-rich plasma of male Japanese white rabbit assessed as inhibition of ADP-induced cytosolic Ca2+ level pretreated for 5 mins followed by ADP addition by FLUO-4 AM dye based analysis; format: cell-free; settings: Oryctolagus cuniculus
[4] = biological target: P2Y purinoceptor 1 (Rattus norvegicus, UniProt P49651); assay: Antagonist activity at P2Y1 receptor in platelet-rich plasma of rat assessed as inhibition of ADP-induced cytosolic Ca2+ level pretreated for 5 mins followed by ADP addition by FLUO-4 AM dye based analysis; format: functional, cell-free
[5] = species on record: Oryctolagus cuniculus; assay: Antagonist activity at P2Y12 receptor in platelet-rich plasma of male Japanese white rabbit assessed as inhibition of VASP phosphorylation at Ser239 at 30 uM pretreated for 10 mins followed by PGE1/ADP addition measured after 10 mins by ELISA relative to control; format: cell-free; settings: time 20.0 min
[6] = biological target: P2Y purinoceptor 12 (Rattus norvegicus) (UniProt Q9EPX4); assay: Antagonist activity at P2Y12 receptor in platelet-rich plasma of male Sprague-Dawley rat assessed as inhibition of VASP phosphorylation at Ser239 at 30 uM pretreated for 10 mins followed by PGE1/ADP addition measured after 10 mins by ELISA relative to control; format: cell-free; settings: time 20.0 min
[7] = biological target: P2Y purinoceptor 1 (Rattus norvegicus) (UniProt P49651); assay: Induction of thermodynamic stability of P2Y1 receptor in rat platelet-rich plasma incubated for 30 mins followed by heat exposure at 61 degreeC for 10 mins by CETSA; format: cell-free; settings: dose <= 100.0 µM, time 40.0 min
[8] = biological target: CYP2C9 (Homo sapiens, UniProt P11712); assay: Inhibition of CYP2C9 in human liver microsomes using tolbutamide as substrate at 10 uM preincubated for 5 min followed by NADPH addition measured after 120 mins by LC-MS/MS analysis relative to control; format: ADME, Microsome; settings: probe tolbutamide, time 125 min
[9] = Protein binding in rat plasma at 10 uM incubated for 12 hrs by equilibrium dialysis method; format: ADME, cell-free; settings: read-out: PPB (converted)
[10] = Half life male Sprague-Dawley rat at 10 mg/kg, iv measured up to 24 hrs by LC-MS/MS analysis; format: ADME, organism-based; settings: in vivo
[11] = Tmax male Sprague-Dawley rat at 10 mg/kg, iv measured up to 24 hrs by LC-MS/MS analysis; format: ADME, organism-based; settings: in vivo
[12] = AUC (0 to infinity) male Sprague-Dawley rat at 10 mg/kg, iv measured up to 24 hrs by LC-MS/MS analysis; format: ADME, organism-based; settings: in vivo
[13] = AUC in brain of male Sprague-Dawley rat at 10 mg/kg, iv measured for 0.083 to 24 hrs by LC-MS/MS analysis; format: ADME, organism-based; settings: in vivo, time 0.083-24 hrs
[14] = test system: Rattus norvegicus; assay: Anti-platelet aggregation in Sprague-Dawley rat assessed as inhibition of ADP-induced platelet aggregation at 10 mg/kg, po measured for 15 mins in presence of 2.5 uM ADP by cell counter analysis relative to control; format: functional; settings: 0.25 h
[15] = test system: Rattus norvegicus; assay: Anti-platelet aggregation in Sprague-Dawley rat assessed as inhibition of ADP-induced platelet aggregation at 10 mg/kg, po measured for 15 mins in presence of 5 uM ADP by cell counter analysis relative to control; format: functional; settings: 0.25 h
[16] = test system: Rattus norvegicus; assay: Neuroprotective activity in MCAO-induced brain damage Sprague-Dawley rat model assessed as reduction in brain infarction size administered intravenously immediately after arterial occlusion measured after 24 hrs by TTC staining based analysis; format: functional; settings: route iv
[17] = test system: Rattus norvegicus; assay: Neuroprotective activity in MCAO-induced brain damage Sprague-Dawley rat model assessed as reduction in neurological deficit scores at 10 mg/kg, iv administered immediately after arterial occlusion measured after 24 hrs by Longa's method; format: functional, organism-based
[18] = test system: Rattus norvegicus; assay: Neuroprotective activity in MCAO-induced brain damage Sprague-Dawley rat model assessed as reduction in brain infarction size at 2.5 mg/kg, iv administered immediately after arterial occlusion measured after 24 hrs by TTC staining based analysis relative to control; format: functional; parameters: scale not given: the % may be the effect or the level left
[19] = test system: Rattus norvegicus; assay: Neuroprotective activity in MCAO-induced brain damage Sprague-Dawley rat model assessed as reduction in brain infarction size at 5 mg/kg, iv administered immediately after arterial occlusion measured after 24 hrs by TTC staining based analysis relative to control; format: functional; parameters: scale not given: the % may be the effect or the level left
[20] = test system: Rattus norvegicus; assay: Neuroprotective activity in MCAO-induced brain damage Sprague-Dawley rat model assessed as reduction in brain infarction size at 10 mg/kg, iv administered immediately after arterial occlusion measured after 24 hrs by TTC staining based analysis relative to control; format: functional; parameters: scale not given: the % may be the effect or the level left
[21] = test system: Rattus norvegicus; assay: Neuroprotective activity in MCAO-induced brain damage Sprague-Dawley rat model assessed as brain infarction size at 5 mg/kg, iv administered immediately after arterial occlusion measured after 24 hrs by TTC staining based analysis (reference value: 43.1 %); format: functional
[22] = test system: Rattus norvegicus; assay: Neuroprotective activity in MCAO-induced brain damage Sprague-Dawley rat model assessed as plasma MDA level at 2.5 to 10 mg/kg, iv administered immediately after arterial occlusion measured after 24 hrs (reference value: 7.93 nmol/ml); format: functional; settings: dose 2.5-10 mg/kg
[23] = test system: Rattus norvegicus; assay: Neuroprotective activity in MCAO-induced brain damage Sprague-Dawley rat model assessed as plasma GSH-px level at 2.5 to 10 mg/kg, iv administered immediately after arterial occlusion measured after 24 hrs; format: functional; settings: dose 2.5-10 mg/kg
[24] = test system: Rattus norvegicus; assay: Neuroprotective activity in MCAO-induced brain damage Sprague-Dawley rat model assessed as improvement in hippocampal neuron damage administered intravenously immediately after arterial occlusion measured after 24 hrs by H and E staining based analysis; format: functional, organism-based; settings: dose 2.5-10 mg/kg, route iv
[25] = test system: Rattus norvegicus; assay: Neuroprotective activity in MCAO-induced brain damage Sprague-Dawley rat model assessed as tightly arranged hippocampal neurons at 2.5 to 10 mg/kg, iv administered immediately after arterial occlusion measured after 24 hrs by H and E staining based analysis; format: functional, organism-based; settings: dose 2.5-10 mg/kg
[26] = test system: Rattus norvegicus; assay: Neuroprotective activity in MCAO-induced brain damage Sprague-Dawley rat model assessed as transparent cytoplasm at 2.5 to 10 mg/kg, iv administered immediately after arterial occlusion measured after 24 hrs by H and E staining based analysis; format: functional, organism-based; settings: dose 2.5-10 mg/kg

Chain of CYP2C9 (P11712 whole entry): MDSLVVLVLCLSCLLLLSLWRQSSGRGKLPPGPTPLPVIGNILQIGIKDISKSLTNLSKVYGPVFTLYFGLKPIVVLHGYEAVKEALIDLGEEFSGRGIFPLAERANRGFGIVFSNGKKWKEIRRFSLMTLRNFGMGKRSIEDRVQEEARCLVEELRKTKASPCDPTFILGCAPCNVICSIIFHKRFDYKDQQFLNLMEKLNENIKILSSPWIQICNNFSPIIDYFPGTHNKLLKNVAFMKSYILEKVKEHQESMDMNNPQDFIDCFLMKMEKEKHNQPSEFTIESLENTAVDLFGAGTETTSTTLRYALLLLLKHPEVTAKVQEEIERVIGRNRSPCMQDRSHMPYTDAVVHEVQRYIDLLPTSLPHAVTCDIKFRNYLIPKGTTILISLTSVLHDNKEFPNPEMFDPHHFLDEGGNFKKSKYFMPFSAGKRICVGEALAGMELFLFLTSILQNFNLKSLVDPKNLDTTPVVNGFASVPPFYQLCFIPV
Chain of P2Y purinoceptor 12 (Rattus norvegicus) (Q9EPX4 whole entry): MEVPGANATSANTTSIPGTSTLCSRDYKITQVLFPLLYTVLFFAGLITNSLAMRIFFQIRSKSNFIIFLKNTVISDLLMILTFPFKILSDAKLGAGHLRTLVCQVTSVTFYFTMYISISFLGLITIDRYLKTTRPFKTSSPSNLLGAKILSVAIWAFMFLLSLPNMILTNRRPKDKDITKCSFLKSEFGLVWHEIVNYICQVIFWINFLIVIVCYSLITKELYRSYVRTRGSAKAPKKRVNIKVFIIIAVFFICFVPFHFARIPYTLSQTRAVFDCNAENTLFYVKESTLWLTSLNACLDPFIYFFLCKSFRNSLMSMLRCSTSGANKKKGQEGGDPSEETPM
Chain of P2Y purinoceptor 1 (P49651 whole entry): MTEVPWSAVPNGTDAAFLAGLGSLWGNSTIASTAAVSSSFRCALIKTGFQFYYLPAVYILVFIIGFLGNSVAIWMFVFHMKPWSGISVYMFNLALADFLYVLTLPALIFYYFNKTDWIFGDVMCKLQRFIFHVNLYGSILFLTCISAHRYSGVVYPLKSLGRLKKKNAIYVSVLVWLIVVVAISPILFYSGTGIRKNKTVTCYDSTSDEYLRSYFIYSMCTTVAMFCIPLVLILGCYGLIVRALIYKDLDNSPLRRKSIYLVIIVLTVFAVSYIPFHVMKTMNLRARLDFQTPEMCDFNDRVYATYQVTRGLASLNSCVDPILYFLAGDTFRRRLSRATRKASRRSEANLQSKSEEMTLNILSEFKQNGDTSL
Chain of P2Y purinoceptor 1 (Rattus norvegicus) (P49651 whole entry): as above

N#Cc1cccc(-c2nc(C(F)F)c(C(=O)O)n2OCc2csc(N)n2)c1
IC50 [1]: 1.86 µM
IC50 [2]: 2.52 µM
IC50 [3]: 0.49 µM
IC50 [4]: 2.2 µM
inhibition [5]: 24.5%
inhibition [6]: 18.4%
Activity [7]: Dose-dependent-effect
inhibition at 2 h, 10 µM [8]: 9.7%
fraction unbound at 12 h, 10 µM [9]: 0.074
half-life [10]: 14.9 min
Tmax [11]: 4.98 min
AUC(0-inf) [12]: 11.4 µg·h/mL
AUC [13]: 1.02 µg·h/g
inhibition in vivo at 10 mg/kg [14]: 54.5%
inhibition in vivo at 10 mg/kg [15]: 43.2%
ED50 [16]: 8.39 mg/kg
Activity [17]: Active; Activity Was Less Than Bptu
Activity [18]: 40.6%
Activity [19]: 45.9%
Activity [20]: 51.5%
Activity [21]: 23.3%
Activity [22]: 4.37 nmol/mL
Activity [23]: 645.4 U/ml
Activity [24]: Dose-dependent-effect; Activity Comparable To Hnw001, Bptu, Edaravone At 10 Mg/Kg
Activity [25]: Active
Activity [26]: Active

N#Cc1cccc(Oc2nc(-c3cccc(C#N)c3)ncc2C(=O)O)c1
IC50 [1]: 2.64 µM
IC50 [2]: 2.81 µM
IC50 [3]: 0.5 µM
IC50 [4]: 2.46 µM
inhibition [5]: 35.9%
inhibition [6]: 29.3%
Activity [7]: Dose-dependent-effect
inhibition at 2 h, 10 µM [8]: 26.3%
fraction unbound at 12 h, 10 µM [9]: 0.046
half-life [10]: 38.5 min
Tmax [11]: 4.98 min
AUC(0-inf) [12]: 23.8 µg·h/mL
AUC [13]: 18.55 µg·h/g
inhibition in vivo at 10 mg/kg [14]: 66%
inhibition in vivo at 10 mg/kg [15]: 47.6%
ED50 [16]: 4.6 mg/kg
Activity [17]: Active; Activity Was Less Than Bptu
Activity [18]: 32%
Activity [19]: 50.6%
Activity [20]: 74.2%
Activity [21]: 21.3%
Activity [22]: 4.37 nmol/mL
Activity [23]: 591.5 U/ml
Activity [24]: Dose-dependent-effect; Activity Comparable To Hnw001, Bptu, Edaravone At 10 Mg/Kg
Activity [25]: Active
Activity [26]: Active
